Source: PubChem BioAssay AID1963438 (Molecular Pharmacology Branch, DTP, NCI, 2024)

System: NCI-H510 multicellular tumor spheroid growth, % test/control
Assay: Anticancer human tumor NCI-H510 cell line growth inhibition [Asc];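 note: spheroids exposed to agents for 7 days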;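 for viability, T/C: 100% = DMSO vehicle control wells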
Conditions: for IC50: curve of first compound; for viability, T/C: stronger effect = lower value
Experimental: Multicellular complex tumor spheroid response to apoptosis pathway targeting inhibitors Alrizomadlin, Pelcitoclax, and Dasminapant in combination with a variety of drugs and investigational agents in selected tumor cell lines
The MDM2 inhibitor alrizomadlin, the Bcl-2/Bcl-xL inhibitor pelcitoclax, and the IAPs inhibitor dasminapant were evaluated both individually and in combination with standard of care and investigational anticancer small molecules within a complex spheroid model of solid tumors. . Complex spheroids include a stromal component modeled by human endothelial cells (HUVEC) and fibroblasts modeled by human mesenchymal stem cells (MSCs). The concentration ranges selected for each drug and investigational agent were based upon clinically achievable concentrations if the clinical Cmax of the agent was known.
Compounds. The drugs and investigational agents: alrizomadlin (APG-115; NSC831270), pelcitoclax (APG-1252; NSC835773), dasminapant (APG-1387;NSC834197), TAK-243 (NSC785004), copanlisib (NSC809693), olaparib (NSC753686), talazoparib (NSC767125), cobimetinib (NSC 768068), eltanexor (KPT-8602, NSC 794443), abemaciclib (NSC 768073), sotorasib (NSC818433), adagrasib (NSC 831453), MRTX-1133 (NSC 836407), Iadademestat (ORY1001, NSC 806812), and RMC-4630 (NSC839698), were obtained from the NCI Developmental Therapeutics Program Chemical Repository. The FDA-approved anticancer drug set is available from the Developmental Therapeutics Program at https://dtp.cancer.gov/organization/dscb/obtaining/available plates.htm. […] The stock solutions were prepared in dimethyl sulfoxide (DMSO, Sigma-Aldrich, St. Louis, MO, cat. D2650) at 800-fold the tested concentration and stored at -70 degrees C prior to their use. All drugs and investigational agents were tested over a range starting from a high concentration at or near the clinical Cmax and decreasing in half-log increments. If the clinical Cmax for an agent had not been determined, the highest concentration tested was 10 microM.
The patient-derived cancer (PDC) cell lines include five colon adenocarcinomas: 186277-243-T-J2-PDC, 616215-338-R-J1-PDC, 439559-082-T-J2-PDC, 463943-066-T-J2-PDC, and 519858-162-T-J1-PDC; three pancreatic carcinomas: 323965-272-R-J2-PDC, 521955-158-R6-J3-PDC, and 521955-158-R2-J5-PDC; two uterine sarcomas: 327498-152-R-J2-PDC and 993429-296-R-J1-PDC; two rhabdomyosarcomas: 755483-174-R-J1-PDC and 772245-204-R-J1-PDC; two soft tissue sarcomas: 126254-015-R-J1-PDC and 494315-158-R-J1-PDC; two malignant fibrous histiocytomas: 317291-083-R-J1-PDC and 596521-263-R-J1-PDC; two breast carcinomas: 171881-019-R-J1-PDC and 885512-296-R-J2-PDC; and one ovarian carcinoma: 6556581-035-R-J-PDC were obtained from the NCI PDMR, (https://pdmr.cancer.gov). The established cell lines HSSY-2 synovial sarcoma (RRID:CVCL 8719), SYO-1 synovial sarcoma (RRID:CVCL_7146), MPNST malignant peripheral neural sheath tumor were obtained from the Sloan Kettering Institute. The following established cell lines were purchased from the American Type Culture Collection (ATCC, Manassas, VA), Sor the received from the NCI repository:, PANC-1 pancreatic carcinoma (CRL-1469, RRID:CVCL_0480), OVCAR-5 ovarian carcinoma (RRID:CVCL_1628), OVCAR-8 ovarian carcinoma (RRID:CVCL_1629), , MCF-7 breast carcinoma (CRL-12584, RRID:CVCL_0031), MDA-MB-231 breast carcinoma (CRL-12532, RRID:CVCL_0062), NCI-H1876 small cell lung carcinoma (CRL-5902, RRID:CVCL_1503), NCI-H510A small cell lung carcinoma (HTB-184, RRID:CVCL_1565), NCI-H1417 (CRL-5869, RRID:CVCL_1469), and NCI-H196 small cell lung carcinoma (CRL-5823, RRID:CVCL_1509). Dr. Peter Houghton (Greehey Children's Cancer Research Institute, University of Texas Health Science Center, San Antonio, TX) provided Rh-18 rhabdomyosarcoma (RRID:CVCL_1659). Pooled donor human umbilical vein endothelial cells (HUVEC, Lonza, cat. CC-2519) and human mesenchymal stem cells (hMSC, Lonza, cat. PT-2501) were purchased from Lonza (Walkersville, MD).
Cell Culture. […]

## NC(=O)C(=Cn1cnc(-c2cc(C(F)(F)F)cc(C(F)(F)F)c2)n1)c1cncnc1 + Cc1c(S(C)(=O)=O)c(-c2cc(F)cc(N3CCN(c4ccc(NS(=O)(=O)c5ccc(NC(CCN6CCC(C(=O)OCCCP(=O)(O)O)CC6)CSc6ccccc6)c(S(=O)(=O)C(F)(F)F)c5)cc4)CC3)c2)c(-c2ccc(Cl)cc2)n1C(C)C
Second compound 0.1 µM
  IC50: 0.199 µM
Second compound 0.316 µM
  IC50: 0.126 µM
Second compound 1 µM
  IC50: 0.0734 µM
Second compound 3.16 µM
  IC50: 0.169 µM
Second compound 10 µM
  IC50: 0.0534 µM
Second compound 0.1 µM, first compound 0.000949 µM
  viability, T/C: 87%
Second compound 0.1 µM, first compound 0.003 µM
  viability, T/C: 76.6%
Second compound 0.1 µM, first compound 0.00949 µM
  viability, T/C: 109%
Second compound 0.1 µM, first compound 0.03 µM
  viability, T/C: 74.3%
Second compound 0.1 µM, first compound 0.0949 µM
  viability, T/C: 86.7%
Second compound 0.1 µM, first compound 0.3 µM
  viability, T/C: 29.6%
Second compound 0.316 µM, first compound 0.000949 µM
  viability, T/C: 102%
Second compound 0.316 µM, first compound 0.003 µM
  viability, T/C: 73.5%
Second compound 0.316 µM, first compound 0.00949 µM
  viability, T/C: 103%
Second compound 0.316 µM, first compound 0.03 µM
  viability, T/C: 78.2%
Second compound 0.316 µM, first compound 0.0949 µM
  viability, T/C: 66.8%
Second compound 0.316 µM, first compound 0.3 µM
  viability, T/C: 4.66%
Second compound 1 µM, first compound 0.000949 µM
  viability, T/C: 88.5%
Second compound 1 µM, first compound 0.003 µM
  viability, T/C: 76.9%
Second compound 1 µM, first compound 0.00949 µM
  viability, T/C: 88.9%
Second compound 1 µM, first compound 0.03 µM
  viability, T/C: 74%
Second compound 1 µM, first compound 0.0949 µM
  viability, T/C: 43%
Second compound 1 µM, first compound 0.3 µM
  viability, T/C: 6.15%
Second compound 3.16 µM, first compound 0.000949 µM
  viability, T/C: 79.2%
Second compound 3.16 µM, first compound 0.003 µM
  viability, T/C: 88.6%
Second compound 3.16 µM, first compound 0.00949 µM
  viability, T/C: 94.8%
Second compound 3.16 µM, first compound 0.03 µM
  viability, T/C: 59.2%
Second compound 3.16 µM, first compound 0.0949 µM
  viability, T/C: 89%
Second compound 3.16 µM, first compound 0.3 µM
  viability, T/C: 18.3%
Second compound 10 µM, first compound 0.000949 µM
  viability, T/C: 76.1%
Second compound 10 µM, first compound 0.003 µM
  viability, T/C: 84.5%
Second compound 10 µM, first compound 0.00949 µM
  viability, T/C: 59.3%
Second compound 10 µM, first compound 0.03 µM
  viability, T/C: 70%
Second compound 10 µM, first compound 0.0949 µM
  viability, T/C: 35%
Second compound 10 µM, first compound 0.3 µM
  viability, T/C: 1.98%

## Cn1ncnc1[C@H]1c2n[nH]c(=O)c3cc(F)cc(c23)N[C@@H]1c1ccc(F)cc1 + CNC(C)C(=O)NC1CN(S(=O)(=O)c2cccc(S(=O)(=O)N3CCC4CCC(C(=O)NC(c5ccccc5)c5ccccc5)N4C(=O)C(NC(=O)C(C)NC)C3)c2)CCC2CCC(C(=O)NC(c3ccccc3)c3ccccc3)N2C1=O
Second compound 0.01 µM
  IC50: > 0.1 µM
Second compound 0.0316 µM
  IC50: > 0.1 µM
Second compound 0.1 µM
  IC50: > 0.1 µM
Second compound 0.316 µM
  IC50: > 0.1 µM
Second compound 1 µM
  IC50: > 0.1 µM
Second compound 0.01 µM, first compound 0.000316 µM
  viability, T/C: 102%
Second compound 0.01 µM, first compound 0.001 µM
  viability, T/C: 101%
Second compound 0.01 µM, first compound 0.00316 µM
  viability, T/C: 105%
Second compound 0.01 µM, first compound 0.01 µM
  viability, T/C: 104%
Second compound 0.01 µM, first compound 0.0316 µM
  viability, T/C: 72.2%
Second compound 0.01 µM, first compound 0.1 µM
  viability, T/C: 85.8%
Second compound 0.0316 µM, first compound 0.000316 µM
  viability, T/C: 96%
Second compound 0.0316 µM, first compound 0.001 µM
  viability, T/C: 102%
Second compound 0.0316 µM, first compound 0.00316 µM
  viability, T/C: 97%
Second compound 0.0316 µM, first compound 0.01 µM
  viability, T/C: 97.2%
Second compound 0.0316 µM, first compound 0.0316 µM
  viability, T/C: 78%
Second compound 0.0316 µM, first compound 0.1 µM
  viability, T/C: 98.4%
Second compound 0.1 µM, first compound 0.000316 µM
  viability, T/C: 110%
Second compound 0.1 µM, first compound 0.001 µM
  viability, T/C: 97%
Second compound 0.1 µM, first compound 0.00316 µM
  viability, T/C: 104%
Second compound 0.1 µM, first compound 0.01 µM
  viability, T/C: 98.2%
Second compound 0.1 µM, first compound 0.0316 µM
  viability, T/C: 72.1%
Second compound 0.1 µM, first compound 0.1 µM
  viability, T/C: 91.4%
Second compound 0.316 µM, first compound 0.000316 µM
  viability, T/C: 113%
Second compound 0.316 µM, first compound 0.001 µM
  viability, T/C: 108%
Second compound 0.316 µM, first compound 0.00316 µM
  viability, T/C: 96.6%
Second compound 0.316 µM, first compound 0.01 µM
  viability, T/C: 96%
Second compound 0.316 µM, first compound 0.0316 µM
  viability, T/C: 56.8%
Second compound 0.316 µM, first compound 0.1 µM
  viability, T/C: 93.6%
Second compound 1 µM, first compound 0.000316 µM
  viability, T/C: 110%
Second compound 1 µM, first compound 0.001 µM
  viability, T/C: 106%
Second compound 1 µM, first compound 0.00316 µM
  viability, T/C: 106%
Second compound 1 µM, first compound 0.01 µM
  viability, T/C: 97.5%
Second compound 1 µM, first compound 0.0316 µM
  viability, T/C: 92.3%
Second compound 1 µM, first compound 0.1 µM
  viability, T/C: 91.1%
